# Measured values reported in patent US6528528B2 (Warner-Lambert Company, priority 1997, dated 2003).
# Like-named read-outs stand apart in the source and are kept apart here.
# Key:
# [1] = molecular target: T1, rabbit reticulocyte 15-LO (Oryctolagus cuniculus, UniProt P12530); test: Rabbit Reticulocyte 15-LO Assay (h15LO); assay type: biochemical; settings: for IC50: 2U rabbit reticulocyte 15-LO, 174 μM linoleic acid, 15 minutes at 4° C.
# T1 construct: Fifteen-lipoxygenase was obtained from phenylhydrazine-treated rabbits and purified per the method of Rapoport; from tissue; host or cells: reticulocytes of phenylhydrazine-treated rabbits
# T1 sequence (P12530 1-663): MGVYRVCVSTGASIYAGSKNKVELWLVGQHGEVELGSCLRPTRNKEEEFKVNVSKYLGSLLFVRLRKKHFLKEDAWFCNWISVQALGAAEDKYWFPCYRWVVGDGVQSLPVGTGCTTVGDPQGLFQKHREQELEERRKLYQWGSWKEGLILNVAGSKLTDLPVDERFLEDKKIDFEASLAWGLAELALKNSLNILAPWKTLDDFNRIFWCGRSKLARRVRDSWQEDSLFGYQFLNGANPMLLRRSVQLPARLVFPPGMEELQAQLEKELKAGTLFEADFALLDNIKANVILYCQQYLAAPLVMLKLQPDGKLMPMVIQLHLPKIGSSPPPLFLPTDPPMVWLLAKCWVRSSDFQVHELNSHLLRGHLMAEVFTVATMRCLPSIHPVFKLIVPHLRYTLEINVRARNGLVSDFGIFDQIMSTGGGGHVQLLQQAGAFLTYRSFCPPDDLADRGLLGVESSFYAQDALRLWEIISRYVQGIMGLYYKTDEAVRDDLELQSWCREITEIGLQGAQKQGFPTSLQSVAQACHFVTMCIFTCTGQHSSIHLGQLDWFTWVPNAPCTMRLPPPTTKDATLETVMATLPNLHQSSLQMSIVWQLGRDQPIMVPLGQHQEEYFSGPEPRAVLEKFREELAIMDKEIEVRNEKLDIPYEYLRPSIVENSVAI
# Outline: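 Purified rabbit reticulocyte 15-LO (2U) incubated with inhibitor and 174 μM linoleic acid in PBS with 0.2% Na cholate for 15 minutes at 4° C. 13-HPODE quantified by peak area against 13-HODE standard curve; % inhibition relative to uninhibited reaction.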
# [2] = 0.25 h, Table 2, read-out: h15LO % @ 10 μM
Structure (SMILES),melting point [°C],IC50 ([1]; Table 2) [nM],also measured
"Nc1cc(C(=O)Nc2ccc(F)cc2)ccc1OC(F)(F)F [Example 146, 3-Amino-4-trifluoromethoxy-N-(4-fluoro-phenyl)-benzamide]",139 to 140,–,"h15LO, value given as bare % ([1]; Table 2, concentration not given): 35.29%"
"COc1ccc(C(=O)Nc2ccccc2)cc1Nc1ccc(C)cc1 [Example 34, 3-(4-Methyl-phenylamino)-4-methoxy-N-phenyl-benzamide]",187 to 188,29,–
"COc1ccc(C(=O)Nc2ccccc2)cc1NS(=O)(=O)c1cccc2ccccc12 [Example 133, 3-(Naphthalene-1-sulfonylamino)-4-methoxy-N-phenyl-benzamide]",212 to 213,58,–
"COc1ccc(C(=O)Nc2ccccc2)cc1NC(=S)Nc1cccc(C(F)(F)F)c1 [Example 84, 4-Methoxy-N-phenyl-3-[3-(3-trifluoromethyl-phenyl)-thioureido]-benzamide]",177 to 178,20,–
"CCc1ccc(C(=O)Nc2ccc(F)c(F)c2)cc1NC(=S)Nc1cccc(C(F)(F)F)c1 [Example 111, 4-Ethyl-N-(3,4-difluorophenyl)-3-[3-(3-trifluoromethyl-phenyl)-thioureido]-benzamide]",169 to 170,79,–
"COc1ccc(C(=O)Nc2ccc(F)c(F)c2)cc1Nc1cccc(C(F)(F)F)c1 [Example 48, 4-Methoxy-3-(3-trifluoromethyl-phenylamino)-N-(3,4-difluorophenyl)-benzamide]",166 to 169,28,–
"CSc1ccc(C(=O)Nc2ccccc2)cc1NC(=S)Nc1cc(Cl)cc(Cl)c1 [Example 106, 3-[3-(3,5-Dichlorophenyl)-thioureido]-4-methylsulfanyl-N-phenyl-benzamide]",172 to 175,11,–
"Cc1ccc(C(=O)Nc2ccccc2)cc1NC(=S)Nc1cc(Cl)cc(Cl)c1 [Example 71, 3-[3-(3,5-Dichlorophenyl)-thioureido]-4-methyl-N-phenyl-benzamide]",182 to 184,526,–
"COc1ccc(C(=O)Nc2ccccc2)cc1Nc1cccc(C)c1 [Example 32, 3-(3-Methyl-phenylamino)-4-methoxy-N-phenyl-benzamide]",160 to 161,23,–
"CCOc1ccc(C(=O)Nc2ccccc2)cc1NC(=S)Nc1cc(Cl)cc(Cl)c1 [Example 80, 3-[3-(3,5-Dichlorophenyl)-thioureido]-4-ethoxy-N-phenyl-benzamide]",201 to 202,39,–
"COc1ccc(C(=O)Nc2ccc(C)c(Cl)c2)cc1NC(=S)Nc1cc(Cl)cc(Cl)c1 [Example 104, N-(3-Chloro-4-methylphenyl)-3-[3-(3,5-dichlorophenyl)-thioureido]-4-methoxy-benzamide]",195 to 196,13,–
"COc1ccc(C(=O)Nc2ccccc2)cc1OC(=O)Oc1ccccc1 [Example 144, 2-Methoxy-5-phenylcarbamoyl-carbonic acid-phenyl ester phenyl ester]",152 to 153,1190,–
"CCc1ccc(C(=O)Nc2ccc(F)c(F)c2)cc1N [Example 19, 3-Amino-4-ethyl-N-(3,4-difluorophenyl)-benzamide]",108 to 110,–,IC50 ([1]; Table 1): 1100 nM
"COc1ccc(C(=O)Nc2ccccc2)cc1NC(=S)Nc1cccc(C(C)=O)c1 [Example 76, 3-[3-(3-Acetyl-phenyl)-thioureido]-4-methoxy-N-phenyl-benzamide]",176 to 177,48,–
"CSc1ccc(C(=O)Nc2ccccc2)cc1Nc1cccc(C(F)(F)F)c1 [Example 43, 4-Methylsulfanyl-3-(3-trifluoromethyl-phenylamino)-N-phenyl-benzamide]",169 to 170,73,–
"COc1ccc(C(=O)Nc2ccccc2)cc1NC(=S)Nc1cc(C(F)(F)F)cc(C(F)(F)F)c1 [Example 89, 3-[3-(3,5-Bis-trifluoromethylphenyl)-thioureido]-4-methoxy-N-phenyl-benzamide]",192 to 193,35,–
"COc1ccc(C(=O)Nc2ccc(Cl)cc2)cc1NC(=S)Nc1cc(Cl)cc(Cl)c1 [Example 92, N-(4-Chlorophenyl)-3-[3-(3,5-dichlorophenyl)-thioureido]-4-methoxy-benzamide]",180 to 185,17,–

Structure (SMILES),melting point [°C],IC50 ([1]; Table 2) [nM],also measured
"COc1ccc(C(=O)Nc2ccc(Cl)c(Cl)c2)cc1NC(=S)Nc1cc(Cl)cc(Cl)c1 [Example 97, N-(3,4-Dichlorophenyl)-3-[3-(3,5-dichlorophenyl)-thioureido]-4-methoxy-benzamide]",189 to 191,19,–
"COc1ccc(C(=O)Nc2ccccc2)cc1NS(=O)(=O)c1cn(C)cn1 [Example 141, 3-(1-Methyl-1H-imidazole-4-sulfonylamino)-4-methoxy-N-phenyl-benzamide]",250 to 252,582,–
"COc1ccc(C(=O)Nc2ccc(C)c(Cl)c2)cc1N [Example 12, 3-Amino-4-methoxy-N-(3-chloro-4-methylphenyl)-benzamide]",153 to 157,–,IC50 ([1]; Table 1): 73 nM
"COc1ccc(C(=O)Nc2cccnc2)cc1NC(=S)Nc1cccc(C(=O)O)c1 [Example 112, 3-{3-[2-Methoxy-5-(pyridin-3-ylcarbamoyl)-phenyl]-thioureido}-benzoic acid]",191 to 192,26,–
"COc1ccccc1Nc1cccc(C(=O)Nc2ccccc2)c1 [Example 27, 3-(2-Methoxy-phenylamino)-N-phenyl-benzamide]",153 to 154,–,"inhibition at 10 µM [1, 2]: 48%"
"COc1ccc(C(=O)Nc2ccc(F)c(F)c2)cc1NC(=S)Nc1cc(Cl)cc(Cl)c1 [Example 107, 3-[3-(3,5-Dichlorophenyl)-thioureido]-N-(3,4-difluoro-phenyl)-4-methoxy-benzamide]",180 to 183,9,–
"COc1ccc(C(=O)Nc2ccccc2)cc1NS(=O)(=O)Cc1ccccc1 [Example 135, 3-Phenylmethanesulfonylamino-4-methoxy-N-phenyl-benzamide]",216,63,–
"O=C(Nc1ccccc1)c1cccc(Oc2ccccc2)c1 [Example 53, 3-Phenoxy-N-phenyl-benzamide]",111 to 112,–,"inhibition at 10 µM [1, 2]: 57%"
"COc1ccc(C(=O)Nc2ccc(C)c(C)c2)cc1N [Example 6, 3-Amino-4-methoxy-N-(3,4-dimethylphenyl)-benzamide]",138 to 142,–,"inhibition at 10 µM ([1]; Table 1, read-out: h15LO % Inhibition at 10 μM): 79%"
"COc1ccc(C(=O)Nc2ccccc2)cc1NC(=S)Nc1cccnc1 [Example 81, 4-Methoxy-N-phenyl-3-(3-pyridin-3-yl-thioureido)-benzamide]",178 to 179,19,–
"COc1ccc(C(=O)Nc2cccnc2)cc1Nc1cccc(C(F)(F)F)c1 [Example 45, 4-Methoxy-3-(3-trifluoromethyl-phenylamino)-N-(3-pyridyl)-benzamide]",184 to 185,440,–
"O=C(Nc1ccccc1)c1ccc(F)c(Nc2ccccc2)c1 [Example 37, 3-Phenylamino-4-fluoro-N-phenyl-benzamide]",132 to 133,2940,–
"COc1ccc(C(=O)Nc2ccccc2)cc1NC(=S)Nc1ccc([N+](=O)[O-])cc1 [Example 88, 4-Methoxy-3-[3-(4-nitrophenyl)-thioureido]-N-phenyl-benzamide]",183 to 184,33,–
"COc1ccc(C(=O)Nc2ccc(C)c(C)c2)cc1NC(=S)Nc1cccc(C)c1 [Example 102, N-(3,4-Dimethylphenyl)-4-methoxy-3-(3-m-tolyl-thioureido)-benzamide]",155 to 160,170,–
"COc1ccc(C(=O)Nc2ccccc2)cc1NC(=S)Nc1ccc(S(=O)(=O)O)cc1 [Example 82, 4-[3-(2-Methoxy-5-phenylcarbamoyl-phenyl)-thioureido]-benzenesulfonic Acid]",> 280,124,–
"COc1ccc(C(=O)Nc2ccccc2)cc1NC(=S)Nc1ccc(C(C)(C)C)cc1 [Example 64, 3-[3-(4-tert-Butyl-phenyl)-thioureido]-4-methoxy-N-phenyl-benzamide]",198 to 200,41,–
"COc1ccc(C(=O)Nc2ccccc2)cc1NCc1ccccc1 [Example 50, 3-Benzylamino-4-methoxy-N-phenyl-benzamide]",164 to 165,846,–
